The values below come from publication PMC11245557, “Differential potassium channel inhibitory activities of a novel thermostable degradation peptide BmKcug1a-P1 from scorpion medicinal material and its N-terminal truncated/restored peptides” (Scientific Reports, 2024).

Common to all, as to format: cell-based
The target in one experiment is T1, hKv1.3 channel (Homo sapiens, UniProt P22001).
T1 construct: expressed in transfected cells; host or cells: HEK293T
Briefly: Whole-cell patch clamp, hKv1.3 currents in transfected HEK293T cells. The following applies: mean ± SE; for IC50: dose-response fitted with modified Hill equation; for IC50 / inhibition of hKv1.3 channel current: SEM. An excerpt:
(§1) The cDNA fragments encoding potassium channels were provided by others as previously described. The cDNA encoding hKv1.1 channel and hKv1.3 channel were cloned into the pCDNA3.1(+) vector. The cDNA encoding hKv1.2 channel, hKv1.6 channel and hKv3.2 channel were inserted into the pIRES2-EGFP vector.
(§2) HEK293T cell lines were obtained from the BeNa Culture Collection (Xinyang, China) and maintained in DMEM (Dulbecco’s Modified Eagle Medium, Gibco, Pittsburgh, PA, USA) supplemented with 10% fetal bovine serum (FBS, Gibco) and 1% penicillin/streptomycin (Gibco). Cells were passaged using Pancreatin (Gibco). For transfection experiments, HEK293T cells were seeded in appropriate culture vessels and allowed to reach 70–80% confluency. The expression vectors of pEGFP-N1 and potassium channels were co-transfected into HEK293T cells using ExFect Transfection Reagent (Vazyme, Nanjing, China) following its manufacturer’s instructions. Briefly, plasmid DNA and transfection reagent were mixed in serum-free medium, incubated for 15–30 min at room temperature to allow complex formation, and then added to the cells. After 24–48 h transfection, the single positive cells were selected based on the presence of GFP fluorescence to assess the potassium channel inhibiting activities of the peptides using whole cell patch clamp technique.
(§3) An EPC-10 patch-clamp amplifier which was controlled by PatchMaster software (HEKA Elektronik, Lambrecht, Germany) was applied to measure and record the potassium currents for whole-cell. The MPS-2 multichannel microperfusion system (INBIO Inc., Wuhan, China) was applied to exchange the external bath solution with different concentration of peptides. According to the protocol as previously described, the internal patch pipette solution and bath solution were prepared. The peptides were dissolved in Bath solution with 0.01% BSA (Gibco, Pittsburgh, PA, USA) to different concentrations. The potassium currents of hKv1.1, hKv1.2, hKv1.3, hKv1.6 and hKv3.2 channel were generated following the respective protocols as previously described. The results of the electrophysiological experiment are presented as the mean ± SE, and over three cells for each peptide in any concentration were examined ([…]).
(§4) For electrophysiological experiments, we used the ClampFit (Molecular Devices, Sunnyvale, CA, USA) and SigmaPlot software (IBM SPSS, Chicago, IL, USA) to analyze the recorded data. The dose–response relationship between channel current and peptide inhibition is fitted by the modified Hill equation: Ipeptide/Icontrol = 1/{1 + [peptide]/IC50}, in which Ipeptide represent the potassium current under the inhibition of peptide, Icontrol represent the peak current, IC50 is the half-maximum inhibition concentration, and [peptide] represents the concentration of the peptide. The half inhibitory concentration (IC50) was the parameter to be fitted.
(In general: In patch-clamp work, channel activity is measured electrically.)

In a further experiment the target is T2, hKv1.1 channel (Homo sapiens, UniProt Q09470).
T2 construct: expressed in transfected cells; host or cells: HEK293T
T2 sequence (Q09470 whole entry): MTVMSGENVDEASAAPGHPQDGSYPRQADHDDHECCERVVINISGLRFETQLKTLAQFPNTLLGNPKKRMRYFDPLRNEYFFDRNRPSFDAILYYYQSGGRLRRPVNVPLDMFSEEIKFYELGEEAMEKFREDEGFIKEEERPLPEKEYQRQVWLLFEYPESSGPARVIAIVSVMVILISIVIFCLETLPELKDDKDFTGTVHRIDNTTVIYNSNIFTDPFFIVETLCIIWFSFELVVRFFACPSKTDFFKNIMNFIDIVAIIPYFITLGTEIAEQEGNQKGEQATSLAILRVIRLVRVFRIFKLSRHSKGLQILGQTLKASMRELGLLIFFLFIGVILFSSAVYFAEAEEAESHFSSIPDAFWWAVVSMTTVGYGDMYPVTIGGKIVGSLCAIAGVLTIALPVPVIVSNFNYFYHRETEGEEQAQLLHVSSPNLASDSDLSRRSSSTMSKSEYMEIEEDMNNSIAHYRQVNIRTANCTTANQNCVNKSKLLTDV
Briefly: Whole-cell patch clamp, hKv1.1 currents in transfected HEK293T cells. The following applies: 1 μM peptide, mean ± SE, n ≥ 3, SEM.
From the text: as §1
as §2, with “Briefly, plasmid DNA and transfection reagent were mixed in serum-free medium, incubated for 15–30 min at room temperature to allow complex formation, and then added to the cells.” left out, “technique. […]” for “technique.”
(§5) For electrophysiological experiments, we used the ClampFit (Molecular Devices, Sunnyvale, CA, USA) and SigmaPlot software (IBM SPSS, Chicago, IL, USA) to analyze the recorded data. […]

In another experiment the target is T3, hKv3.2 channel (Homo sapiens, UniProt Q96PR1).
T3 construct: expressed in transfected cells; host or cells: HEK293T
T3 sequence (Q96PR1 1-638): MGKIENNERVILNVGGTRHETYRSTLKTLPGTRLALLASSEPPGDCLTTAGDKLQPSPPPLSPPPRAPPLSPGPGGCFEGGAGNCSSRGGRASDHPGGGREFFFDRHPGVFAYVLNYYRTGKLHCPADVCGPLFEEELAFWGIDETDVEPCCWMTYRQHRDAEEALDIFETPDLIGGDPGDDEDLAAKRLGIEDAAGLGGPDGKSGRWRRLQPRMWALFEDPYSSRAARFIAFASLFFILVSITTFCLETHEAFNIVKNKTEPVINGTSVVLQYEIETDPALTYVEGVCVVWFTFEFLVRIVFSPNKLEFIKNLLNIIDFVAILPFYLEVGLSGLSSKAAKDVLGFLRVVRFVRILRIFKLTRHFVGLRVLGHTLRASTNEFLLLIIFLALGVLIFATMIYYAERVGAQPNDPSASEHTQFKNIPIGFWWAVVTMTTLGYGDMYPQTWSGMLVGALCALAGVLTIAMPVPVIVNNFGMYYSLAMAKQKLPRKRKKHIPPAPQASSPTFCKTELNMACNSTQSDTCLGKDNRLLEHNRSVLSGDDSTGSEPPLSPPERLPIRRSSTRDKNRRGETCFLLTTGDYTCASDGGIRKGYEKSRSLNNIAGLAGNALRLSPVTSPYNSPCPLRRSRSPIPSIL
Briefly: Whole-cell patch clamp, hKv3.2 currents in transfected HEK293T cells. The following applies: 1 μM peptide, mean ± SE, n ≥ 3, SEM.
From the text: as §1
as §2, with “Briefly, plasmid DNA and transfection reagent were mixed in serum-free medium, incubated for 15–30 min at room temperature to allow complex formation, and then added to the cells.” left out, “technique. […]” for “technique.”
as §5

A further experiment deals with T4, hKv1.2 channel (Homo sapiens, UniProt P16389).
T4 construct: expressed in transfected cells; host or cells: HEK293T
T4 sequence (P16389 whole entry): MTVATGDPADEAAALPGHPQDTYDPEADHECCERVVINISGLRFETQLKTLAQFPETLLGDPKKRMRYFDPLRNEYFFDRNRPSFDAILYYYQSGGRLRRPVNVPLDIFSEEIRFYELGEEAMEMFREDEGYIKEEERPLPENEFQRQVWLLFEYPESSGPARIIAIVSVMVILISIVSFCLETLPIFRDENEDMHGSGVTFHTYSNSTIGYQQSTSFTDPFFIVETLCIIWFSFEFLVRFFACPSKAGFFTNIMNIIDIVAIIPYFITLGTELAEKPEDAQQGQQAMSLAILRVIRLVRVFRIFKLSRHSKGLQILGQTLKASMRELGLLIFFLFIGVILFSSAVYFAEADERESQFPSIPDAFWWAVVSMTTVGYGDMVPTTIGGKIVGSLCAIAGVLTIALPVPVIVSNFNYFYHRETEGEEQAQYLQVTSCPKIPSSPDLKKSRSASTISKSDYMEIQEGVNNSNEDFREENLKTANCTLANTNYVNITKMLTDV
Briefly: Whole-cell patch clamp, hKv1.2 currents in transfected HEK293T cells. As to conditions: mean ± SE.
From the text: as §1, §2, §3, §4

The target in the next experiment is T5, hKv1.6 channel (Homo sapiens, UniProt P17658).
T5 construct: expressed in transfected cells; host or cells: HEK293T
T5 sequence (P17658 whole entry): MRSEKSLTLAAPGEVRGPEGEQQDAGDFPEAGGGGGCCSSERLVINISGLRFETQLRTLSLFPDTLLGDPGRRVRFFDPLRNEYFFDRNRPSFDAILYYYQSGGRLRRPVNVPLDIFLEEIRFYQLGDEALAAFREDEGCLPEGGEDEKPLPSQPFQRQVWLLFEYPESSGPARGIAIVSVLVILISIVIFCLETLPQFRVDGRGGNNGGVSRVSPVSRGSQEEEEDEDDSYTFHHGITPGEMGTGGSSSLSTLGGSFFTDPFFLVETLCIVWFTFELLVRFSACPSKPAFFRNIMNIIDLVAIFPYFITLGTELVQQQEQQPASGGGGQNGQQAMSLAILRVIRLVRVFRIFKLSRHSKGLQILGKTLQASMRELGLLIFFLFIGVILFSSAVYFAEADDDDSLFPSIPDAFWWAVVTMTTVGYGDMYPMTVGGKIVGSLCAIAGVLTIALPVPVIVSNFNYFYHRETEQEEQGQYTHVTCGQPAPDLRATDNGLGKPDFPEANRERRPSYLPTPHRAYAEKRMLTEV
Briefly: Whole-cell patch clamp, hKv1.6 currents in transfected HEK293T cells. The following applies: 1 μM peptide, mean ± SE, n ≥ 3, SEM.
From the text: as §1
as §2, with “Briefly, plasmid DNA and transfection reagent were mixed in serum-free medium, incubated for 15–30 min at room temperature to allow complex formation, and then added to the cells.” left out, “technique. […]” for “technique.”
as §5

Setting [1] is: 1 μM peptide, HEK293T, n ≥ 3, SEM.

Usually IC50 stands for the point on the concentration scale where inhibition reaches its midpoint. Lower therefore signals greater potency in that assay.

Bridge positions count the residues as written; N and C are the ends. Peptide text beside a SMILES is read from it.

T1 sequence (P22001 whole entry): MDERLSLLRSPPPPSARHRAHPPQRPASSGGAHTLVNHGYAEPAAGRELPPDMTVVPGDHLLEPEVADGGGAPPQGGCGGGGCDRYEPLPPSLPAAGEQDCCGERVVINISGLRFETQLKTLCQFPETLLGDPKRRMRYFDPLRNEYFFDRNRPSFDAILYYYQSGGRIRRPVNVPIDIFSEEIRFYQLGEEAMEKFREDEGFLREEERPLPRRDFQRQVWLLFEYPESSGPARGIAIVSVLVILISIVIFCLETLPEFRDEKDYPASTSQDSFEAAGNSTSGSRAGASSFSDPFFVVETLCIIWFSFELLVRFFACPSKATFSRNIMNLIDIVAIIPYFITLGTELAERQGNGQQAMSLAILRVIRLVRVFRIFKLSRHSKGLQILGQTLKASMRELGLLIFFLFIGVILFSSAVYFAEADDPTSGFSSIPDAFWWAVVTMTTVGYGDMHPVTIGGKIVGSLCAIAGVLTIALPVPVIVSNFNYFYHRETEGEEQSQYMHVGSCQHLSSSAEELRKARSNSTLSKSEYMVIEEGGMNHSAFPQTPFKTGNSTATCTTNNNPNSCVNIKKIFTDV

At hKv1.3 channel (HEK293T), `CSCC[C@@H]1NC(=O)[C@@H]2CSSC[C@H](NC(=O)[C@H](CO)NC(=O)[C@@H](NC(=O)[C@@H](N)CC(N)=O)C(C)C)C(=O)N[C@@H](CO)C(=O)N[C@@H](C)C(=O)N[C@@H](CO)C(=O)N[C@@H](CO)C(=O)N[C@@H](CCC(N)=O)C(=O)N[C@H]3CSSC[C@H](NC(=O)[C@H](CCCCN)NC(=O)[C@H](CO)NC(=O)[C@H](CC(N)=O)NC1=O)C(=O)N[C@@H](CCCNC(=N)N)C(=O)N[C@H](C(=O)N[C@@H](Cc1ccc(O)cc1)C(=O)N[C@@H](CO)C(=O)O)CSSC[C@H](NC(=O)[C@H](C(C)C)NC(=O)[C@@H]1CCCN1C(=O)[C@H](Cc1c[nH]c4ccccc14)NC3=O)C(=O)N[C@@H](CCC(=O)O)C(=O)N[C@@H](CCCCN)C(=O)N[C@@H](CC(C)C)C(=O)N[C@@H](Cc1ccccc1)C(=O)NCC(=O)N[C@@H]([C@@H](C)O)C(=O)N[C@@H](Cc1ccc(O)cc1)C(=O)N[C@@H](CCCNC(=N)N)C(=O)NCC(=O)N[C@@H](CCCCN)C(=O)N2` [BmKcug1a-P1-D2] (H-NVSCSASSQCWPVCEKLFGTYRGKCMNSKCRCYS-OH; disulfide 4-25, 10-30, 14-32) displayed an IC50 of 1660 ± 180 nM.

In the case of `CSCC[C@@H]1NC(=O)[C@@H]2CSSC[C@H](NC(=O)[C@H](CO)NC(=O)[C@@H](NC(=O)[C@H](CC(N)=O)NC(=O)[C@@H](NC(=O)[C@@H](N)Cc3ccccc3)[C@@H](C)O)C(C)C)C(=O)N[C@@H](CO)C(=O)N[C@@H](C)C(=O)N[C@@H](CO)C(=O)N[C@@H](CO)C(=O)N[C@@H](CCC(N)=O)C(=O)N[C@H]3CSSC[C@H](NC(=O)[C@H](CCCCN)NC(=O)[C@H](CO)NC(=O)[C@H](CC(N)=O)NC1=O)C(=O)N[C@@H](CCCNC(=N)N)C(=O)N[C@H](C(=O)N[C@@H](Cc1ccc(O)cc1)C(=O)N[C@@H](CO)C(=O)O)CSSC[C@H](NC(=O)[C@H](C(C)C)NC(=O)[C@@H]1CCCN1C(=O)[C@H](Cc1c[nH]c4ccccc14)NC3=O)C(=O)N[C@@H](CCC(=O)O)C(=O)N[C@@H](CCCCN)C(=O)N[C@@H](CC(C)C)C(=O)N[C@@H](Cc1ccccc1)C(=O)NCC(=O)N[C@@H]([C@@H](C)O)C(=O)N[C@@H](Cc1ccc(O)cc1)C(=O)N[C@@H](CCCNC(=N)N)C(=O)NCC(=O)N[C@@H](CCCCN)C(=O)N2` [BmKcug1a-P1] (H-FTNVSCSASSQCWPVCEKLFGTYRGKCMNSKCRCYS-OH; disulfide 6-27, 12-32, 16-34), the “inhibition of potassium currents mediated by hKv1.1” value at hKv1.1 channel was 1.9 ± 0.3%. Further, the “inhibition of potassium currents mediated by hKv3.2” value on hKv3.2 channel turned out to be 6.5 ± 0.9%. Moreover, the “inhibition of hKv1.2 channel current” value worked out at 12.6 ± 3.3% at hKv1.2 channel (200 nM peptide, SEM); 64.1 ± 4.5% against hKv1.2 channel (5 μM peptide, SEM); 83.9 ± 2.2% against hKv1.2 channel (25 μM peptide, SEM). Besides, at hKv1.2 channel (setting [1]), the “inhibition of potassium currents mediated by hKv1.2” value came out at 37.7 ± 7.4%. Further, the IC50 turned out to be 2120 ± 270 nM at hKv1.2 channel (HEK293T, dose-response fitted with modified Hill equation, SEM) and 1540 ± 280 nM against hKv1.3 channel (HEK293T). Moreover, at hKv1.6 channel, the “inhibition of potassium currents mediated by hKv1.6” value stood at 3.8 ± 1.6%. Also, the “inhibition of hKv1.3 channel current” value against hKv1.3 channel (40 nM peptide) is listed as 7.0 ± 0.5%; at hKv1.3 channel (200 nM peptide), 18.3 ± 2.1%; on hKv1.3 channel (5 μM peptide) it was 65.2 ± 2.3%; against hKv1.3 channel (25 μM peptide), 82.0 ± 0.6%. In addition, at hKv1.3 channel (setting [1]), the “inhibition of potassium currents mediated by hKv1.3” value was 47.3 ± 3.5%.

Turning to `CSCC[C@@H]1NC(=O)[C@@H]2CSSC[C@H](NC(=O)[C@@H](N)CO)C(=O)N[C@@H](CO)C(=O)N[C@@H](C)C(=O)N[C@@H](CO)C(=O)N[C@@H](CO)C(=O)N[C@@H](CCC(N)=O)C(=O)N[C@H]3CSSC[C@H](NC(=O)[C@H](CCCCN)NC(=O)[C@H](CO)NC(=O)[C@H](CC(N)=O)NC1=O)C(=O)N[C@@H](CCCNC(=N)N)C(=O)N[C@H](C(=O)N[C@@H](Cc1ccc(O)cc1)C(=O)N[C@@H](CO)C(=O)O)CSSC[C@H](NC(=O)[C@H](C(C)C)NC(=O)[C@@H]1CCCN1C(=O)[C@H](Cc1c[nH]c4ccccc14)NC3=O)C(=O)N[C@@H](CCC(=O)O)C(=O)N[C@@H](CCCCN)C(=O)N[C@@H](CC(C)C)C(=O)N[C@@H](Cc1ccccc1)C(=O)NCC(=O)N[C@@H]([C@@H](C)O)C(=O)N[C@@H](Cc1ccc(O)cc1)C(=O)N[C@@H](CCCNC(=N)N)C(=O)NCC(=O)N[C@@H](CCCCN)C(=O)N2` [BmKcug1a-P1-D4] (H-SCSASSQCWPVCEKLFGTYRGKCMNSKCRCYS-OH; disulfide 2-23, 8-28, 12-30 (inferred); N-terminus and C-terminus assumed), at hKv1.3 channel (HEK293T), the 50% inhibitory concentration (IC50) came out at 2210 ± 280 nM.
